Experimental findings from publication PMC9797592, “TJ-M2010-5, a novel CNS drug candidate, attenuates acute cerebral ischemia-reperfusion injury through the MyD88/NF-κB and ERK pathway” (Frontiers in Pharmacology, 2022) are described below.

For assay [1], the system named is OGD/R-stimulated BV-2 cells. Briefly: OGD/R-stimulated BV-2 cells: TNF-α/IL-6 ELISA. In kind it is cell-based. The protocol: Enzyme-linked immunosorbent assay (ELISA) kits were used to detect the levels of TNF-α, IL-1β, and IL-6 in the brain. Brain tissue was homogenized in 1 ml of phosphate-buffered saline using a tissue homogenizer. Then, the homogenates were centrifuged at 14,000 g for 10 min at 4 °C. The supernatant was immediately transferred for measurement following the manufacturer’s instructions. BV-2 cells were incubated with different treatments and the supernatants were collected and measured.
Background: In an ELISA, binding on a coated surface is turned into a signal by an enzyme label.

The test system of assay [2] is CIRI mice. Briefly: MCAO cerebral ischemia-reperfusion injury model: neurological deficit score and TTC infarct volume. In kind it is in vivo, C57BL/6 mice. As for the experimental part: Male C57BL/6 mice (Beijing Vital River Laboratory Animal Technology Co. Ltd., Beijing, China) weighing 22–28 g and aged 8–10 weeks were used. All animal experiments were approved by the Institutional Animal Care and Use Committee of Tongji Hospital (Wuhan, China). All procedures were performed in accordance with specific pathogen-free standards. Mice were randomly divided into the following seven groups: sham, I/R, vehicle (I/R + saline), I/R + TJ-5 (5 mg/kg), I/R + TJ-5 (10 mg/kg), I/R + TJ-5 (15 mg/kg), and I/R + edaravone (3 mg/kg).
The mice were anesthetized with 1% pentobarbital sodium solution via intraperitoneal injection, and the body temperature was maintained at 37.0°C–37.5°C. The middle cerebral artery occlusion (MCAO) model was established according to the Longa method, as described previously ([Longa et al., 1989]). In brief, the right carotid artery was carefully separated and exposed. A silicon-coated embolic suture (Doccol, United States) was inserted slowly from the external carotid artery (ECA) into the internal carotid artery (ICA) until it reached the middle cerebral artery (MCA). After 1 h of ischemia, the embolic suture was withdrawn. The surgical procedure in the sham group was the same as that in the I/R group, but the MCA was not obstructed.
After 24 h of reperfusion, each group of mice was scored blindly, according to the scoring system of the Longa method ([Longa et al., 1989]). The score was 0 for no obvious neurological deficit, one for inability to fully extend the left forelimb, two for turning to the left, three for leaning to the left while walking, and four for the inability to walk spontaneously and impaired consciousness.
The mice were sacrificed 24 h after I/R. Mouse brains were harvested for the measurement of cerebral infarct volume. The brains were frozen at −80°C for 5 min and cut into five 2-mm thick slices. The slices were then placed in a small dish, 2% 2,3,5-triphenyltetrazolium chloride (TTC) solution (Sigma, United States) was added, and 4% paraformaldehyde was used for fixation. Images were captured using a digital camera. ImageJ software was used to measure the volume of the brain infarction.

For assay [3], the system named is CIRI mice. Nature of the assay: Flow cytometry of immune cells isolated from the ischemic brain hemisphere. The class given is in vivo, C57BL/6 mice. The conditions noted are these: TJ-5 injected at the time of reperfusion. As for the experimental part: After the mice were anesthetized, 0.9% saline was used for transcardial perfusion. The right brain hemispheres were homogenized in a 6-well plate using 2 ml Hank’s balanced salt solution (HBSS, Solarbio) per well. Collagenase IV (1 mg/ml) was added to […]. The brain homogenate was filtered through a 70 μm cell strainer and centrifuged at 300 g for 5 min at 4°C. Then, 2 ml of 30% Percoll (Sigma) were added to resuspend the brain cell precipitate, and the resuspended cells were slowly added to a 15 ml centrifuge tube containing 3 ml of 70% Percoll. The intermediate layer cells were analyzed by flow cytometry after density-gradient centrifugation.
Approximately 5 × 10^5 cells were suspended in 200 μL HBSS, and anti-mouse CD16/CD32 (5 ng/μL) was used to block Fc receptor binding. The cells were stained with allophycocyanin-conjugated CD45 antibody (1 ng/μL), FITC-conjugated CD11b antibody (1 ng/μL), and phycoerythrin-conjugated Ly6G antibody (1 ng/μL) and incubated in the dark at 4°C for 30 min. Finally, the cells were washed with HBSS buffer, resuspended in 200 μL of HBSS, and analyzed using a flow cytometer (BD FACSCalibur).

SMILES strings stand for the structures.

Regarding `O=C(CCN1CCN(Cc2ccccc2)CC1)Nc1nc(-c2ccccc2)cs1` [TJ-5], the “levels of TNF-α and IL-6 in supernatants” value in assay [1] is recorded as “markedly reduced”. For the same compound, the “percentage of infarct volume” value in assay [2] (TJ-5 15 mg/kg i.v. at 1 h of ischemia, 24 h reperfusion, TTC, I/R group 34.24%) is 8.47%. Also, in assay [2] (TJ-5 15 mg/kg vs I/R group, 24 h reperfusion, Longa score), the neurological deficit score result is “significantly lower”. In addition, the infarct volume result in assay [2] (intravenous TJ-5 at 4 h reperfusion, TTC at 24 h after reperfusion) was “effectively reduced infarct volume”. In assay [3], the “number of brain-infiltrating CD11b+CD45hi myeloid cells” value was “reduced the number” and the “proportion of inactive microglia (CD11b+CD45int)” value is on record as “increased the proportion”.
